In ChEMBL document CHEMBL4765470 (J Med Chem, 2021):
Starred links: 1 amine or outer side, 2 acyl side, 3 side chain; linkers in the order of their positions; H or OH if unused. Non-standard residues stand in square brackets, D forms with d. Residues, ends and D or L forms follow the SMILES beside them. *: point of attachment. γ4hPhe = O=C(CC[C@H](Cc1ccccc1)N[*:1])[*:2]; β3hPhg = O=C(C[C@@H](N[*:1])c1ccccc1)[*:2]; 1Nal = N[C@@H](Cc1cccc2ccccc12)C(=O)O; 2Nal = N[C@@H](Cc1ccc2ccccc2c1)C(=O)O; β3hF = N[C@H](CC(=O)O)Cc1ccccc1; 2Thi = N[C@@H](Cc1cccs1)C(=O)O; Cha = N[C@@H](CC1CCCCC1)C(=O)O; Tle = CC(C)(C)[C@H](N)C(=O)O; Nle = CCCC[C@H](N)C(=O)O; Ac5c = NC1(C(=O)O)CCCC1; Aze = O=C(O)[C@@H]1CCN1; Ac3c = NC1(C(=O)O)CC1; Aib = CC(C)(N)C(=O)O; Bn = c1ccc(C*)cc1

Experiments:
[1] = target: T1, Apelin receptor (Homo sapiens, UniProt P35414); experiment: Displacement of [125I] [NIe75, Tyr77]Pyr-apelin-13 from YFP-tagged human APJ receptor expressed in HEK293 cell membranes incubated for 1 hr by gamma counting based Cheng-Prusoff equation analysis
T1 sequence (P35414 whole entry): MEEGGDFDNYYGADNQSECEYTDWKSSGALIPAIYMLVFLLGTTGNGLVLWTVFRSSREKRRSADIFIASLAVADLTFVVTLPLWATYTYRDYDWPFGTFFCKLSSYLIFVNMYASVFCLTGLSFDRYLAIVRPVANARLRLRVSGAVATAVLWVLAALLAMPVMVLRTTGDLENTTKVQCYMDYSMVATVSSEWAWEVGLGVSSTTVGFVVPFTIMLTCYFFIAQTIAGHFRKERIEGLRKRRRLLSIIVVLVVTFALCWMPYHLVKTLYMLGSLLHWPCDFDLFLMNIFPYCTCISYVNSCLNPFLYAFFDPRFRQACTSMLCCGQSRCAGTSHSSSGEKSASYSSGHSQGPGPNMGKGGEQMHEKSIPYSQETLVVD

[2] = target: T1, Apelin receptor; experiment: Agonist activity at human APJ receptor expressed in HEK293 cells co-expressing Galpha(i1)-RlucII(91) assessed as induction of dissociation of Galpha(i1) from G-beta-gamma subunits incubated for 5 mins by BRET assay; type: cell-based
[3] = target: T1, Apelin receptor; experiment: Agonist activity at human APJ receptor expressed in HEK293T cells co-expressing PDZ-Rho-Gef-RLucll assessed as induction of Galpha12 effector (PDZ-RhoGEF) to the cell membrane incubated for 5 mins by BRET assay; type: functional, cell-based
[4] = target: T1, Apelin receptor; experiment: Agonist activity at human APJ receptor expressed in HEK293 cells co-expressing Rlucll-beta-arrestin2 assessed as induction of beta-arrestin2 recruitment to APJ incubated for 30 mins by BRET assay; type: cell-based

| Ki [1] | EC50 [2] | EC50 [3] | EC50 [4] | Structure (SMILES) |
| --- | --- | --- | --- | --- |
| 16 nM | 7 nM | 152 nM | 155 nM | CCCC[C@H](N)C(=O)N1CCC[C@H]1C(=O)N[C@@H](CC(C)C)C(=O)N[C@@H](Cc1cnc[nH]1)C(=O)N[C@@H](CO)C(=O)N[C@@H](CCCNC(=N)N)C(=O)N[C@H](C(=O)N1CCC[C@H]1C(=O)N[C@@H](Cc1ccc2ccccc2c1)C(=O)N1CCC[C@H]1C(=O)O)C(C)C (H-[Nle]PLHSRVP[2Nal]P-OH) |
| 19 nM | 19 nM | 1520 nM | 381 nM | CCCC[C@H](N)C(=O)N1CCC[C@H]1C(=O)N[C@@H](CC(C)C)C(=O)N[C@@H](Cc1cnc[nH]1)C(=O)N[C@@H](CO)C(=O)N[C@@H](CCCNC(=N)N)C(=O)N[C@H](C(=O)N1CCC[C@H]1C(=O)N[C@@H](Cc1ccccc1)C(=O)N[C@@H](Cc1ccc(OCc2ccccc2)cc1)C(=O)O)C(C)C (H-[Nle]PLHSRVPFY(Bn)-OH) |
| 4 nM | 2.8 nM | 94 nM | 120 nM | CCCC[C@H](N)C(=O)N1CCC[C@H]1C(=O)N[C@@H](CC1CCCCC1)C(=O)N[C@@H](Cc1cnc[nH]1)C(=O)N[C@@H](CO)C(=O)N[C@@H](CCCNC(=N)N)C(=O)N[C@H](C(=O)N1CCC[C@H]1C(=O)N[C@@H](Cc1ccccc1)C(=O)N1CCC[C@H]1C(=O)O)C(C)C (H-[Nle]P[Cha]HSRVPFP-OH) |
| 4 nM | 2.3 nM | 43 nM | 53 nM | CCCC[C@H](N)C(=O)N1CCC[C@H]1C(=O)N[C@@H](CC(C)C)C(=O)N[C@@H](Cc1cnc[nH]1)C(=O)N[C@@H](CO)C(=O)N[C@@H](CCCNC(=N)N)C(=O)N[C@H](C(=O)N1CCC[C@H]1C(=O)N[C@@H](Cc1ccccc1)C(=O)N[C@@H](Cc1ccccc1)C(=O)O)C(C)C (H-[Nle]PLHSRVPFF-OH) |
| 2.4 nM | 1.2 nM | 70 nM | 79 nM | CCCC[C@H](N)C(=O)N1CCC[C@H]1C(=O)NC1(C(=O)N[C@@H](Cc2cnc[nH]2)C(=O)N[C@@H](CO)C(=O)N[C@@H](CCCNC(=N)N)C(=O)N[C@H](C(=O)N2CCC[C@H]2C(=O)N[C@@H](Cc2ccccc2)C(=O)N2CCC[C@H]2C(=O)O)C(C)C)CCCC1 (H-[Nle]P[Ac5c]HSRVPFP-OH) |
| 19 nM | 5.1 nM | 740 nM | 182 nM | CCCC[C@H](N)C(=O)N1CCC[C@H]1C(=O)N[C@@H](CC(C)C)C(=O)N[C@@H](Cc1cnc[nH]1)C(=O)N[C@@H](CO)C(=O)N[C@@H](CCCNC(=N)N)C(=O)N[C@H](C(=O)N1CCC[C@H]1C(=O)N[C@H](CC(=O)O)Cc1ccccc1)C(C)C (H-[Nle]PLHSRVP[β3hF]-OH) |
| 16 nM | 5.8 nM | 141 nM | 370 nM | CCCC[C@H](N)C(=O)N1CCC[C@H]1C(=O)N[C@H](C(=O)N[C@@H](Cc1cnc[nH]1)C(=O)N[C@@H](CO)C(=O)N[C@@H](CCCNC(=N)N)C(=O)N[C@H](C(=O)N1CCC[C@H]1C(=O)N[C@@H](Cc1ccccc1)C(=O)N1CCC[C@H]1C(=O)O)C(C)C)[C@@H](C)CC (H-[Nle]PIHSRVPFP-OH) |
| 20 nM | 4.6 nM | 525 nM | 149 nM | CCCC[C@H](N)C(=O)N1CCC[C@H]1C(=O)N[C@@H](CC(C)C)C(=O)N[C@@H](Cc1cnc[nH]1)C(=O)N[C@@H](CO)C(=O)N[C@@H](CCCNC(=N)N)C(=O)N[C@H](C(=O)N1CCC[C@H]1C(=O)N[C@@H](Cc1ccccc1)C(=O)N[C@@H](CC(C)C)C(=O)O)C(C)C (H-[Nle]PLHSRVPFL-OH) |
| 21 nM | 2.4 nM | 795 nM | 401 nM | CCCC[C@H](N)C(=O)N1CCC[C@H]1C(=O)N[C@H](C(=O)N[C@@H](Cc1cnc[nH]1)C(=O)N[C@@H](CO)C(=O)N[C@@H](CCCNC(=N)N)C(=O)N[C@H](C(=O)N1CCC[C@H]1C(=O)N[C@@H](Cc1ccccc1)C(=O)N1CCC[C@H]1C(=O)O)C(C)C)C(C)(C)C (H-[Nle]P[Tle]HSRVPFP-OH) |
| 8.9 nM | 5.8 nM | 198 nM | 175 nM | CCCC[C@H](N)C(=O)N1CCC[C@H]1C(=O)N[C@@H](CC(C)C)C(=O)N[C@@H](Cc1cnc[nH]1)C(=O)N[C@@H](CO)C(=O)N[C@@H](CCCNC(=N)N)C(=O)N[C@H](C(=O)N1CCC[C@H]1C(=O)N[C@H](CCC(=O)O)Cc1ccccc1)C(C)C (H-[Nle]PLHSRVP-γ4hPhe) |
| 3.9 nM | 3.8 nM | 37 nM | 107 nM | CCCC[C@H](N)C(=O)N1CCC[C@H]1C(=O)N[C@@H](CC(C)C)C(=O)N[C@@H](Cc1cnc[nH]1)C(=O)N[C@@H](CO)C(=O)N[C@@H](CCCNC(=N)N)C(=O)N[C@H](C(=O)N1CCC[C@H]1C(=O)N[C@@H](Cc1ccccc1)C(=O)N[C@@H](Cc1ccc2ccccc2c1)C(=O)O)C(C)C (H-[Nle]PLHSRVPF[2Nal]-OH) |
| 212 nM | – | – | – | CCCC[C@H](N)C(=O)N1CCC[C@H]1C(=O)N[C@@H](Cc1ccccc1)C(=O)N[C@@H](Cc1cnc[nH]1)C(=O)N[C@@H](CO)C(=O)N[C@@H](CCCNC(=N)N)C(=O)N[C@H](C(=O)N1CCC[C@H]1C(=O)N[C@@H](Cc1ccccc1)C(=O)N1CCC[C@H]1C(=O)O)C(C)C (H-[Nle]PFHSRVPFP-OH) |
| 159 nM | – | – | – | CCCC[C@H](N)C(=O)N1CCC[C@H]1C(=O)N[C@@H](CC(C)C)C(=O)N[C@@H](Cc1cnc[nH]1)C(=O)N[C@@H](CO)C(=O)N[C@@H](CCCNC(=N)N)C(=O)N[C@H](C(=O)N1CC[C@H]1C(=O)N[C@@H](Cc1ccccc1)C(=O)O)C(C)C (H-[Nle]PLHSRV[Aze]F-OH) |
| 62 nM | – | – | – | CCCC[C@H](N)C(=O)N1CCC[C@H]1C(=O)N[C@@H](CC(C)C)C(=O)N[C@@H](Cc1c[nH]c2ccccc12)C(=O)N[C@@H](CO)C(=O)N[C@@H](CCCNC(=N)N)C(=O)N[C@H](C(=O)N1CCC[C@H]1C(=O)N[C@@H](Cc1ccccc1)C(=O)N1CCC[C@H]1C(=O)O)C(C)C (H-[Nle]PLWSRVPFP-OH) |
| > 10000 nM | – | – | – | CCCC[C@H](N)C(=O)N1CCC[C@H]1C(=O)N[C@@H](CC(C)C)C(=O)N[C@@H](Cc1cccc2ccccc12)C(=O)N[C@@H](CO)C(=O)N[C@@H](CCCNC(=N)N)C(=O)N[C@H](C(=O)N1CCC[C@H]1C(=O)N[C@@H](Cc1ccccc1)C(=O)N1CCC[C@H]1C(=O)O)C(C)C (H-[Nle]PL[1Nal]SRVPFP-OH) |
| 228 nM | – | – | – | CCCC[C@H](N)C(=O)N1CCC[C@H]1C(=O)N[C@@H](CC(C)C)C(=O)N[C@@H](Cc1cnc[nH]1)C(=O)N[C@@H](CO)C(=O)N[C@@H](CCCNC(=N)N)C(=O)N[C@H](C(=O)N1CCC[C@H]1C(=O)N[C@H](CC(=O)O)c1ccccc1)C(C)C (H-[Nle]PLHSRVP-β3hPhg) |
| 92 nM | – | – | – | CCCC[C@H](N)C(=O)N1CCC[C@H]1C(=O)N[C@@H](CC(C)C)C(=O)N[C@@H](Cc1cnc[nH]1)C(=O)N[C@@H](CO)C(=O)N[C@@H](CCCNC(=N)N)C(=O)N[C@H](C(=O)N1CCC[C@H]1C(=O)N[C@@H](Cc1ccc(OCc2ccccc2)cc1)C(=O)O)C(C)C (H-[Nle]PLHSRVPY(Bn)-OH) |
| > 10000 nM | – | – | – | CCCC[C@H](N)C(=O)N1CCC[C@H]1C(=O)N[C@@H](CC(C)C)C(=O)N[C@@H](Cc1cnc[nH]1)C(=O)N[C@@H](CO)C(=O)N[C@@H](CCCNC(=N)N)C(=O)N[C@H](C(=O)N1CCC[C@H]1C(=O)N[C@@H](C)C(=O)N1CCC[C@H]1C(=O)O)C(C)C (H-[Nle]PLHSRVPAP-OH) |
| 664 nM | – | – | – | CCCC[C@H](N)C(=O)N1CCC[C@H]1C(=O)N[C@@H](CC(C)C)C(=O)N[C@@H](Cc1cccs1)C(=O)N[C@@H](CO)C(=O)N[C@@H](CCCNC(=N)N)C(=O)N[C@H](C(=O)N1CCC[C@H]1C(=O)N[C@@H](Cc1ccccc1)C(=O)N1CCC[C@H]1C(=O)O)C(C)C (H-[Nle]PL[2Thi]SRVPFP-OH) |
| > 10000 nM | – | – | – | CCCC[C@H](N)C(=O)N1CCC[C@H]1C(=O)N[C@@H](CC(C)C)C(=O)N[C@@H](Cc1cnc[nH]1)C(=O)N[C@@H](CO)C(=O)N[C@@H](CCCNC(=N)N)C(=O)NC1(C(=O)N2CCC[C@H]2C(=O)N[C@@H](Cc2ccccc2)C(=O)N2CCC[C@H]2C(=O)O)CC1 (H-[Nle]PLHSR[Ac3c]PFP-OH) |
| 120 nM | – | – | – | CCCC[C@H](N)C(=O)N1CCC[C@H]1C(=O)N(C)[C@@H](CC(C)C)C(=O)N[C@@H](Cc1cnc[nH]1)C(=O)N[C@@H](CO)C(=O)N[C@@H](CCCNC(=N)N)C(=O)N[C@H](C(=O)N1CCC[C@H]1C(=O)N[C@@H](Cc1ccccc1)C(=O)N1CCC[C@H]1C(=O)O)C(C)C |
| 174 nM | – | – | – | CCCC[C@H](N)C(=O)N1CCC[C@H]1C(=O)N[C@@H](CC(C)C)C(=O)N[C@@H](Cc1cnc[nH]1)C(=O)N[C@@H](CO)C(=O)N[C@@H](CCCNC(=N)N)C(=O)N[C@H](C(=O)N1CCC[C@H]1C(=O)N[C@@H](Cc1ccccc1)C(=O)N1CCC[C@H]1C(=O)O)C(C)(C)C (H-[Nle]PLHSR[Tle]PFP-OH) |
| 76 nM | – | – | – | CCCC[C@H](N)C(=O)N1CCC[C@H]1C(=O)N[C@@H](CC(C)C)C(=O)N[C@@H](Cc1cnc[nH]1)C(=O)N[C@@H](CO)C(=O)N[C@@H](CCCNC(=N)N)C(=O)N[C@H](C(=O)N1CCC[C@H]1C(=O)N[C@@H](Cc1ccccc1)C(=O)N1C[C@H](O)C[C@H]1C(=O)O)C(C)C |
| > 10000 nM | – | – | – | CCCC[C@H](N)C(=O)N1CCC[C@H]1C(=O)N[C@@H](CC(C)C)C(=O)N[C@@H](Cc1cnc[nH]1)C(=O)N[C@@H](CO)C(=O)N[C@@H](CCCNC(=N)N)C(=O)N[C@H](C(=O)NC(C)(C)C(=O)N[C@@H](Cc1ccccc1)C(=O)O)C(C)C (H-[Nle]PLHSRV[Aib]F-OH) |
